# From article PMC12427625, “Heterochannels Kv(1.1-1.2)2 and Their Interactions with Pore Blockers” (Cells, 2025)
# Bridge positions count the residues as written; N and C are the ends. Peptide text beside a SMILES is read from it.
# Key:
# Kv1.1 [1] = test: Competitive binding, homotetrameric Kv1.1 channel (earlier data); details: Table 2 and data published previously [35]
# Kv1.3 = test: Ce4 activity on Kv1.3 (earlier data); details: Table 2 and data published previously [35]
# Kv1.1 [2] = details: Kv1.1; ref [35]; read-out: Kap; cited from earlier work
# Source text: (§1) These properties were also similar to those reported by other investigators for the corresponding homotetrameric channels, Kv1.1 and Kv1.2. It was also shown that the Kd of the complexes between HgTx-G, a high-affinity fluorescent ligand for the Kv1.1 and Kv1.2 channels, and ...
# Kv1.2 [3] = details: Kv1.2; ref [35]; read-out: Kap; cited from earlier work
# Source text: as §1
# [4] = target: T1, human heterochannels Kv(1.1-1.2)2 (Homo sapiens, UniProt P16389+Q09470, S369T/S371T); test: Competitive binding of peptide and HgTx-G to Kv(1.1-1.2)2 heterochannels; details: Kv(1.1-1.2)2, vs Ce1
# T1 construct: expressed in transfected cells; host or cells: mouse neuroblastoma Neuro-2a cells transfected with pmKate2-KCNA1-KCNA2
# T1 sequence (Q09470 whole entry S369T): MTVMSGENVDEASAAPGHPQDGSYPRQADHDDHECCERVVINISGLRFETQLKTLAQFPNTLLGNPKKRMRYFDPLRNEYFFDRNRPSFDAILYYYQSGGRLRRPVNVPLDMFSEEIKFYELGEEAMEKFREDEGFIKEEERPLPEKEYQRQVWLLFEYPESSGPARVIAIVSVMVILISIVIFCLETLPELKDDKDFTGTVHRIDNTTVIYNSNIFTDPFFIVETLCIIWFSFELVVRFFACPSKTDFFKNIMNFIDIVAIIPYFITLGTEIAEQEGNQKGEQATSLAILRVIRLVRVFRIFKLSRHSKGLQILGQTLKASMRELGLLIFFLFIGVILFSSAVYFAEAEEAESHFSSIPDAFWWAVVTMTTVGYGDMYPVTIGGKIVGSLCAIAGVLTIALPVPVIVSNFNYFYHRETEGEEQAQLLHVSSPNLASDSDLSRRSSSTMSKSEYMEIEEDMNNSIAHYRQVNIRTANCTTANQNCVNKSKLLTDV
# T1 sequence (P16389 2-499 S371T): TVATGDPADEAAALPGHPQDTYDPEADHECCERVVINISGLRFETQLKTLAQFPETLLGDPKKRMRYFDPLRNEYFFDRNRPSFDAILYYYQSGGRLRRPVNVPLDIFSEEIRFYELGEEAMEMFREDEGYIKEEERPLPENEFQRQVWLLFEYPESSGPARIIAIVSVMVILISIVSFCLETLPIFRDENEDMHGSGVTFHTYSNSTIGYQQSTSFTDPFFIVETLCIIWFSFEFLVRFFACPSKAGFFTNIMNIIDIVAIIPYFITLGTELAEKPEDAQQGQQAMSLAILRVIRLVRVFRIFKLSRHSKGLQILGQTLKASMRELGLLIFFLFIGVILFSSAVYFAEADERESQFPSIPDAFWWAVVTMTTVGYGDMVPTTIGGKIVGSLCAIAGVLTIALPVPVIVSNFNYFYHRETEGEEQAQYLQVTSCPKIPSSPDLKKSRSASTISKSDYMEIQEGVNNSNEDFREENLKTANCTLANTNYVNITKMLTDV
# Source text: To construct the gene encoding a fluorescent concatenated dimer mKate2-Kv1.1-Kv1.2 (K-Kv1.1-1.2), a cloning strategy was used, in which the C-terminus of the human Kv1.1 α-subunit was fused end-to-end to the N-terminus of the human Kv1.2 α-subunit via a short KL linker that corresponds to the HindIII restriction site. Here, we followed the design of the α-subunit concatemers proposed earlier. The previously obtained plasmids pmKate2-KCNA1 and pmKate2-KCNA2, which coded for mKate2-Kv1.1 (K-Kv1.1) and mKate2-Kv1.2 (K-Kv1.2) fusion proteins, were used for cloning. In these proteins, both human α-subunits Kv1.1 and Kv1.2 are N-terminally tagged with the red fluorescent protein mKate2 and harbor single mutations (S369T in Kv1.1, and S371T in Kv1.2) that improve the surface presentation of the homotetrameric channels. At first, pmKate2-KCNA1stopless was generated by amplification of the KCNA1 gene lacking TAA stop codon in a polymerase chain reaction (PCR) using a pair of oligonucleotide primers Kcna1-f1 (5′-[…]-3′) and Kcna1-Stop-r1 (5′-[…]-3′; BglII and HindIII sites are underlined). The obtained DNA fragment was hydrolyzed by BglII/HindIII restriction endonucleases and cloned into pmKate2-KCNA1 plasmid to substitute KCNA1 for KCNA1stopless. The obtained plasmid pmKate2-KCNA1stopless was further used as a vector to produce the KCNA1-KCNA2 dimer. For this, the KCNA2 gene was amplified in PCR using primers Kcna2-Hind-f1 (5′- […]-3′) and Kcna2-Sal-r1 ([…]-3′; HindIII, SalGI, and PstI sites are underlined; TAA stop codon is marked in bold) and cloned into HindIII/SalI sites of pmKate2-KCNA1stopless. The resulting pmKate2-KCNA1-KCNA2 plasmid encoded K-Kv1.1-1.2.
# To analyze the binding of HgTx-G to heterochannels, HgTx-G (0.032–2 nM) was added to cells in the complete medium for 1 h. In the experiments with competitive binding, HgTx-G (0.5 nM) was added to cells, together with the studied peptide ([…]; 1.25–100 nM ChTx; 0.5–20 nM AgTx2, 2–10 nM MeKTx11-1, 0.063–1 nM Ce1, 0.063–1 nM Ce4, or 1 µM ScyTx), and incubated in the complete medium for 1 h.
# Confocal microscopy measurements were carried out with the SP2 laser scanning confocal microscope (Leica Microsystems GmbH, Wetzlar, Germany), using the 63× water-immersion objective (HCX PL APO, NA = 1.2). Axial and lateral resolutions were 0.6 and 0.2 µm.
# Fluorescence of proteins labeled with mKate2 was excited at 561 nm and detected in the 680–800 nm region. Fluorescence of HgTx-G was excited at 488 nm and recorded in the 495–540 nm region. The fluorescent probes of various cellular organelles were excited at 488 nm and detected in the 495–540 nm region.
# Quantitative analysis of HgTx-G interaction with heterochannels was performed following the procedure developed previously. Briefly, confocal images of cells were used to calculate the ratio of the fluorescence intensity of HgTx-G bound to heterochannels to the fluorescence intensity of membrane-embedded heterochannels for each measured cell. This ratio was averaged over a sample of measured cells (20–30 cells) to obtain the Rav value and its standard deviation.
# To characterize the affinity of unlabeled peptide for heterochannels, the competitive binding of this peptide and HgTx-G to heterochannels was measured at the constant concentration of HgTx-G (L) and increasing concentration (C) of the peptide. Rav data were calculated, plotted as a function of C, and fitted with the following equation:Rav(C) = Rav0/(1 + C/DC50)(2) where DC50 is the peptide concentration displacing 50% of HgTx-G from the complex with heterochannels, and Rav0 is Rav at C = 0.
# Further, the Cheng–Prusoff equation was used to calculate the apparent dissociation constant (Kap) of the complex between the studied peptide and heterochannels:Kap = DC50/(1 + L/Kd)(3)
# Three independent experiments were performed, and data on Kap were averaged and presented as mean ± SEM.
# Kv1.2 [5] = test: Competitive binding, homotetrameric Kv1.2 channel (earlier data); details: Kv1.2 vs Kv1.1 (Table 2)
structure (smiles),measurement,setting,value
"CC[C@H](C)[C@H](NC(=O)[C@H](CCCCN)NC(=O)[C@H](Cc1ccc(O)cc1)NC(=O)[C@@H]1CSSC[C@@H]2NC(=O)[C@@H]3CCCN3C(=O)[C@H](CC(C)C)NC(=O)[C@H](CC(C)C)NC(=O)[C@@H]3CSSC[C@H](NC(=O)[C@H](CCCCN)NC(=O)CNC(=O)[C@H](CC(N)=O)NC(=O)[C@H](CCSC)NC(=O)[C@H](CSSC[C@H](NC(=O)[C@H](CCCCN)NC(=O)[C@@H](NC(=O)[C@H](CC(N)=O)NC(=O)[C@@H](NC(=O)[C@@H](NC(=O)[C@@H](N)[C@@H](C)O)[C@@H](C)CC)[C@@H](C)CC)C(C)C)C(=O)N[C@@H]([C@@H](C)O)C(=O)N[C@@H](CO)C(=O)N4CCC[C@H]4C(=O)N[C@@H](CCCCN)C(=O)N[C@@H](CCC(N)=O)C(=O)N3)NC(=O)[C@H](CCCCN)NC(=O)[C@H](C)NC(=O)CNC(=O)[C@H](C)NC(=O)[C@H](Cc3c[nH]cn3)NC(=O)[C@H]([C@@H](C)CC)NC(=O)CNC(=O)[C@H](Cc3ccc(O)cc3)NC(=O)[C@H]([C@@H](C)CC)NC(=O)[C@H](CCC(=O)O)NC(=O)[C@H](CCCCN)NC2=O)C(=O)N[C@@H](CCCCN)C(=O)N1)C(=O)O [Ce4] (H-TIINVKCTSPKQCLLPCKEIYGIHAGAKCMNGKCKCYKI-OH; disulfide 7-29, 13-34, 17-36; N-terminus and C-terminus assumed)",selectivity: activity against Kv1.2 and Kv(1.1-1.2)2 higher than against Kv1.1,Kv1.1 [1],"more than 10,000 times"
same,selectivity: activity against Kv1.2 and Kv(1.1-1.2)2 higher than against Kv1.3,Kv1.3,> 1000 times
same,Kd,Kv1.1 [2],> 300 nM
same,Kd,Kv1.2 [3],0.03 ± 0.01 nM
same,fold lower activity compared to Ce1,[4],approximately threefold
same,activity against Kv1.2 compared to Kv1.1,Kv1.2 [5],much higher activity against the Kv1.2 channel than against the Kv1.1 channel
